Data taken from patent publication US20240091215A1, “TASQUINIMOD OR A PHARMACEUTICALLY ACCEPTABLE SALT THEREOF FOR USE IN THE TREATMENT OF MYELODYSPLASTIC SYNDROME” (ACTIVE BIOTECH AB, priority 2021, published 2024).

Tests used:
[1] = system: IRAK1, NF-κB-p65 and gasdermin in MDS MSCs; assay: Western blot of IRAK1, NF-κB-p65 and gasdermin in MDS MSCs treated with TNF-α with or without tasquinimod; type: cell-based, human; conditions: MSC cultures, TNF-α 10 ng/ml, tasquinimod 10 μM, 48 h
Experimental: GAPDH (38 kDa) served as reference protein. Lane 1=treated with TNF-α; lane 2=treated with TNF-α and tasquinimod.
(§1) To mimic inflammatory conditions, in-vitro cultured MSCs were treated with recombinant S100A8, S100A9 or the S100A8/9 heterodimer (each 1.5 μg/ml) or TNF-α (10 ng/ml) in the presence or absence of tasquinimod (10 μM) for different time periods depending on the subsequent experiments. Hematopoietic stem and progenitor cells (HSPCs) for cocultures were isolated using CD34 antibody-conjugated magnetic beads, according to the manufacturer's instructions (Miltenyi Biotec) and were added in CellGro medium (CellGenix) containing stem cell factor (SCF), FLT3-L and IL-3 (10 ng/ml each).
(§2) Whole cell lysates were prepared using RIPA lysis buffer containing proteinase inhibitors. Protein concentrations were determined using the BCA Protein Assay Kit. Equal protein amounts were separated by SDS-polyacrylamide gel electrophoresis and transferred to polyvinylidene fluoride membranes for detection of specific proteins using primary antibodies for IRAK1, NF-κB-p65, gasdermin and OXPHOS overnight at 4° C., following secondary antibodies HRP-conjugated goat anti-mouse IgG (Invitrogen) or donkey anti-rabbit IgG (GE Healthcare), respectively. The blots were incubated with ECL Plus Western Blotting reagent (Amersham) and the signals captured using a LAS3000 imaging system.

PD-L1 = conditions: Oncoimmunology 2016, Vol. 5, No. 6, e1145333; cited from earlier work
[2] = system: MDS MSC co-cultured with hematopoietic progenitor cells; assay: CAF-C assay, MSC/HSPC co-culture with pre-treated stromal layers; type: cell-based, human; conditions: stromal layers pre-treated with S100A9 and tasquinimod, one to four weeks
Experimental: FIG. 6a is a bar chart showing quantification of CAF-C when co-culturing MDS MSC with hematopoietic progenitor cells, after one, two, three and four weeks without the presence of either S100A9 or tasquinimod (“without”), in the presence of tasquinimod (TASQ), in the presence of S100A9 (S100A9), and in the presence of both s100A9 and tasquinimod (S100A9+TASQ).
as §1
CAF-C assays were performed over four weeks using pre-treated healthy or MDS MSC layers. One thousand magnetically isolated CD34+ cells were added in StemMACS™ HSC-CFU complete medium (Miltenyi Biotec).

[3] = system: PD-L1 in healthy and CMML MSCs; assay: Western blot of PD-L1 in healthy and CMML MSCs; type: cell-based, human; conditions: 48 h; for PD-L1 expression in the absence of S100A9: tasquinimod alone
Experimental: Lane 1=untreated control; lane 2=treated with tasquinimod; lane 3=treated with S100A9; […] tasquinimod.
(§3) BM mononuclear cells were isolated by percoll gradient centrifugation and MSCs were grown as adherent monolayer in DMEM/10% FCS. Passages 2-5 were used for the experiments.
as §1, §2

MSCs [4] = assay: CellROX Deep Red Flow Cytometry Assay of ROS levels; type: cell-based, human
Experimental: The inflammatory micromilieu of the myelodysplastic bone marrow leads to increased ROS levels which may cause aberrant cellular function. Therefore, the effect of tasquinimod on ROS levels in MSCs is assayed using the CellROX™ Deep Red Flow Cytometry Assay kit (Thermo Fisher) according to the manufacturer's instructions.

[5] = system: MDS MSC co-cultured with hematopoietic progenitor cells; assay: CFU assay with cells harvested after one week of MSC/HSPC co-culture; type: cell-based, human; conditions: colonies counted after 2 weeks
Excerpt: FIG. 6b is a bar chart showing the number of colonies/300 cells in CFU assays performed using MDS MSC cells cocultured with hematopoietic progenitor cells, harvested after one week of co-culture in the presence of S100A9 or in the presence of both S100A9 and tasquinimod or in the absence of both S100A9 and tasquinimod (“control”), with 300 cells being plated in enriched methylcellulose medium with recombinant cytokines (MethoCult™ H4435, STEMCELL Technologies). Colonies were counted after 2 weeks and classified under a microscope or with the STEMvision™ system (STEMCELL Technologies). FIG. 6c is a bar chart showing the number of colonies/300 cells in CFU assays performed using MDS MSC cells and hematopoietic progenitor cells, harvested after one week of co-culture in the presence (“TASQ”) or absence (“without”) of tasquinimod, with 300 cells being plated in enriched methylcellulose medium with recombinant cytokines (MethoCult™ H4435, STEMCELL Technologies). Colonies were counted after 2 weeks and classified under a microscope or with the STEMvision™ system (STEMCELL Technologies). […] Colonies were counted after 2 weeks and classified under a microscope or with the STEMvision™ system (STEMCELL Technologies).

MDS MSCs = assay: MSC differentiation assays (adipogenic, osteogenic); type: cell-based, human
Experimental: Adipogenic and osteogenic differentiation capacity is an important functional feature of MSCs and often altered in MDS leading to changes in the bone metabolism. Therefore, the effect of tasquinimod on adipogenic and osteogenic differentiation was assayed as follows.
MSCs were seeded in 6-well plates (5×10^3 MSCs/cm^2), cultured to subconfluency for approximately 4 days in DMEM, and subjected to adipogenic (0.5 mM […], 1 μM dexamethasone, 100 μM indomethacin, 10 μM insulin) or osteogenic (0.1 μM dexamethasone, 0.2 mM ascorbate-2-phosphate, 10 mM β-glycerophosphate) differentiation. […] Differentiation was graded according to microscopic analysis as follows: 0=no differentiation; 1=25% of the culture wells contain differentiated cells; 2=50% of the culture wells contain differentiated cells; 3=75% of the culture wells contain differentiated cells; 4=100% of the culture wells contain differentiated cells. Osteogenesis was determined by van Kossa staining, and the catalytic activity of ALP was determined.

[6] = system: IL-1β, IL-18, Casp1 and PD-L1 mRNA in MDS MSCs; assay: RT-PCR mRNA expression of IL-1β, IL-18, caspase 1 and PD-L1 in MDS MSCs treated with S100A9 with or without tasquinimod; type: cell-based, human; conditions: 48 h
Experimental: FIG. 3 is a bar chart representing the mRNA expression levels of IL-1β, IL-18, Casp1 and PD-L1 by real-time PCR of MDS MSCs after 48 h treatment with tasquinimod only (TASQ), with S100A9 only (S100A9), or with both S100A9 and tasquinimod (S100A9+TASQ). Amplicons for IL-1β, IL-18, Casp1 and PD-L1 were normalized to endogenous GAPDH expression and the untreated MSCs were set to 1 (=control).
as §3, §1
RNA was isolated from MSC using RNeasy Mini Kit (Qiagen) and reverse transcribed into cDNA using RevertAid™ cDNA synthesis kit (Thermo Fisher) with oligo-dT primers. Relative target quantity was determined using the comparative CT (ΔΔCT) method. RT-PCR was performed using SYBR Green/ROX PCR master mix (Thermo) and target specific primers for caspasel, IL1β, IL18, PD-L1, PD-1 and GAPDH as housekeeping gene on a Taqman™ Fast 3500 cycler (Applied Biosystems). Amplicons were normalized to endogenous GAPDH control.

[7] = system: IRAK1, NF-κB-p65 and gasdermin in MDS MSCs; assay: Western blot of IRAK1, NF-κB-p65 and gasdermin in MDS MSCs treated with S100A9 with or without tasquinimod; type: cell-based, human; conditions: S100A9 1.5 μg/ml, tasquinimod 10 μM, 48 h
Experimental: GAPDH (38 kDa) served as reference protein. Lane 1=untreated control; lane 2=treated with S100A9; lane 3=treated with S100A9/tasquinimod.
as §3, §1, §2

[8] = system: genetically modified mice (e.g. B6; 129-Trp53bp^tm1Jc/J and NUP98/HOXD13); assay: In vivo validation in genetically modified mice developing signs of MDS; conditions: MDS mouse models, blood counts weekly, bone marrow after 20 weeks
Experimental: The promising in vitro results are validated in vivo in different mouse models. In these models, genetically modified mice (e.g. B6; 129-Trp53bp^tm1Jc/J and NUP98/HOXD13) which develop typical signs of MDS such as anemia and cytopenia are treated with tasquinimod. Peripheral blood counts are recorded weekly and finally the bone marrow is analysed after 20 weeks.

αSMA and NF-κB in MSCs = assay: Immunofluorescence staining and confocal microscopy of S100A9/tasquinimod treated MSCs; type: cell-based, human
Experimental: as §1
S100A9/tasquninimod treated MSCs were fixed with 4% paraformaldehyde. Cells were permeabilized using PBS containing 0.1% Triton™ X-100 (T-PBS), blocked with T-PBS containing 10% FCS and 1% HSA (IF-Buffer) and incubated over night at 4° C. with antibodies against αSMA, NFκB or PD-L1. Secondary antibodies polyclonal sheep-anti-rabbit-Cy3 or polyclonal goat-anti-mouse-Cy2 were incubated for 1 h at room temperature. Cell nuclei were counterstained with DAPI. Imaging analysis was performed by confocal microscopy (LSM800, Carl Zeiss) and ZEN software.

MSCs [9] = assay: Seahorse Metabolic Extracellular Flux Profiling (Cell Mito Stress Test); type: cell-based, human
Experimental: The impact of tasquinimod on cellular metabolism is investigated by using the Seahorse system (Agilent Technologies). MSCs are seeded in Seahorse 96-well plates. Cell Mito Stress Test (XF Cell Mito Stress Test Kit, Agilent Technologies) is performed following the standard protocol. Oxygen consumption rate (OCR) and Extracellular Acidification Rate (ECAR) are detected after injection of oligomycin ([…]), carbonyl cyanide-p-trifluoromethoxyphenylhydrazone (FCCP, […]), and the combination of rotenone and antimycin (Rot/AA, […]). OCR is measured with an XF96 analyzer and the Wave software (version 2.2.0).

PD-1 = PD-1 expression (RT-PCR) in MSC/HSPC co-cultures; type: cell-based, human; conditions: summary statement; PD-1 measured in co-cultured HSPCs
Experimental: as §1
[…] Relative target quantity was determined using the comparative CT (ΔΔCT) method. RT-PCR was performed using SYBR Green/ROX PCR master mix (Thermo) and target specific primers for caspasel, IL1β, IL18, PD-L1, PD-1 and GAPDH as housekeeping gene on a Taqman™ Fast 3500 cycler (Applied Biosystems). Amplicons were normalized to endogenous GAPDH control.

[10] = MSCs, induced by S100A9, tasquinimod 10 μM
[11] = MDS MSCs, S100A9-induced increase, tasquinimod 10 μM

## COc1cccc2c1c(O)c(C(=O)N(C)c1ccc(C(F)(F)F)cc1)c(=O)n2C [tasquinimod, 4-hydroxy-5-methoxy-N,1-dimethyl-2-oxo-N-[4-(trifluoromethyl)phenyl]-1,2-dihydroquinoline-3-carboxamide]
[1]
  expression of IRAK1 (Western blot): inhibited the expression
  expression of NF-κB-p65 (Western blot): inhibited the expression
  expression of gasdermin (Western blot): inhibited the expression
PD-L1
  expression of PD-L1, previously reported: upregulate expression of PD-L1
[2]
  number of CAF-Cs: increased
[3]; MSC from CMML MDS patients
  PD-L1 expression in the absence of S100A9: downregulation of PD-L1
[3]; MSC from healthy volunteers
  PD-L1 expression in the absence of S100A9: downregulation of PD-L1
[3]; [10]
  PD-L1 expression at the protein level: suppressed
MSCs [4]
  ROS levels in MSCs: block elevated ROS levels
[5]
  number of CFUs: increased
MDS MSCs; MDS MSCs, after 14 days of cultivation in differentiation medium
  decrease in number of adipocytes (Oil red O positive cells): 25-50%
MDS MSCs; MSC differentiation assay
  adipogenic differentiation: reducing
  osteogenic differentiation: improving
[6]; [11]
  mRNA expression of IL-1β: this increase was inhibited
  mRNA expression of IL-18: this increase was inhibited
  mRNA expression of caspase 1: this increase was inhibited
[6]; [10]
  PD-L1 expression at the mRNA level: suppressed
[7]
  expression of IRAK1 (Western blot): inhibited the expression
  expression of NF-κB-p65 (Western blot): inhibited the expression
  expression of gasdermin (Western blot): inhibited the expression
[8]
  restoration of functional hematopoiesis: partly restore functional hematopoiesis
αSMA and NF-κB in MSCs
  NF-kB (nuclear) expression in MSCs: reduces
  αSMA expression in MSCs: reduces
MSCs [9]
  Spare Respiratory Capacity: improved
  cellular stress: reduced cellular stress
PD-1
  PD-1 expression: inhibition
